From PMC6611044, “Pharmacokinetic analysis of new synthetic antimalarial N-251” (Tropical Medicine and Health, 2019)
Converted amounts (≈) assume the structure as drawn. “And” between values parts separate entries of the source, which are not always exact repeats. Identical values can stand only once. “Also recorded” adds a separate entry of the source. Like-named read-outs stand apart in the source and are kept apart here.

Key:
[1] = PK analysis after i.v. administration of N-251 in fasted mice; format: in vivo; conditions: for MRTiv / Vd1 / Vd2 / AUC / k el / clearance / Vd: fasted mice; for A (hybrid parameter) / B (hybrid parameter) / a (hybrid parameter) / b (hybrid parameter): two-compartment fit; for half-life / AUC / k el / clearance / Vd: male, ICR, mouse, plasma; for clearance: read-out: CLtotal (converted); for Vd: read-out: Vdss
Method: We used healthy 5-week-old ICR male mice that were subjected to overnight fasting since the night a day before the test. To analyze N-251 after i.v. administration, doses of 25, 10, and 5 mg/kg were used for each group. The blood sample was collected at 2, 5, 15, and 30 min as well as 1, 2, 4, and 6 h post-dose, and a single blood sample was collected from a single mouse. Preparation of plasma samples of N-251 was described in the “Methods” section. Data were expressed as mean (n = 6) ± standard deviation (SD). Plasma concentration-time profiles after i.v. administration were fitted to a two-compartment model using the non-linear least-squares regression program MULTI [17]. Plasma concentration (Cp) was expressed using the following equation: Cp=A⋅EXP−α⋅t+B⋅EXP−β⋅t.
where A and B are D ⋅ (α − k21)/Vd1/(α − β) and D ⋅ (k21 − β)/Vd1/(α − β), respectively. D, Vd1, and k21 are the dose, apparent distribution volume of central compartment, and distribution rate constant from the peripheral to central compartment, respectively, and α and β represent the slopes of α and β phases of log Cp, respectively. PK parameters were calculated as follows: AUC = A/α +B/β; total body clearance, CLtotal =D/AUC; elimination rate constant, kel = (Aβ + Bα)/(A + B); apparent distribution volume of peripheral compartment, Vd2 =k12/k21·Vd1; distribution volume at steady state, Vdss = Vd1 + Vd2; and mean residence time (MRT) = (k12+ k21)/(kel·k21).

[2] = PK analysis after p.o. administration of N-251 in fasted mice; format: in vivo; conditions: for AUC: 0 to infinity
Method: To analyze the absorption kinetics of N-251, it was orally administered to fasted mice with dose of 210, 100, 68, 50, and 30 mg/kg. Blood sample was collected at 15 and 30 min as well as 1, 1.5, 2, 3, 4, and 6 h post-dose. Data were expressed as the mean (n = 6) ± SD. AUC and MRT after p.o. administration in fasting mice were calculated based on the trapezoidal rule. F was calculated with an AUC of 10 mg/kg of i.v. dose. The highest observed concentration was used as Cmax, and the time for Cmax was defined as Tmax.

[3] = Effects of food and parasite infection on absorption of N-251 after p.o. administration; format: in vivo, mice; conditions: p.o. 68 mg/kg; for F: vs AUC of 10 mg/kg i.v.
Method: Normal-fasted and normal-fed mice were used for the analysis. Parasite-infected mice were prepared before the analysis, and a 0.61% infection rate in P. berghei-infected mice under fasting condition was used. The single p.o. dose of N-251 was 68 mg/kg. Blood sample was collected 15, 30, and 45 min as well as 1, 1.5, 2, 3, 4, and 6 h post-dose. Data were expressed as mean with the bar indicating the SD value.

[4] = Multiple p.o. dosing plasma concentration-time profile and simulation; format: in vivo, mice
Method: N-251 was administered p.o. at a dose of 68 mg/kg every 8 h for 2 days in normal-fed mice. Blood sample was collected at 15, 30, and 45 min as well as 1, 1.5, 2, 3, 4, 6, 8, 10, 16, 18, 24, 26, 32, 34, 40, 42, 44, 46, and 48 h after administration. Data were expressed as mean (n = 6) with the bar indicating the SD value. Simulation of plasma concentration-time profile after multiple dosing was performed by utilizing the parameters obtained via fitting analysis for the plasma concentration-time curve after a single p.o. dose of N-251 based on the two-compartment model with the first-order absorption process. The equation and parameters used for the simulation were as follows: Cp=X⋅EXP−ka⋅t−tlag+Y⋅EXP−α⋅t−tlag+Z⋅EXP−β⋅t−tlag,
where ka and tlag are absorption rate constant and lag time, respectively, and X, Y, Z, α, and β are the hybrid parameters. Their values used for simulation were as follows: X = 8422 ng/mL/kg, ka = 0.845 h^−1, Y = − 8419 ng/mL/kg, α = 1.09 h^−[…], Z = 5.29 ng/mL/kg, β = 1.06 h^−1, and lag time = 0.330.

[5] = Solubility; format: physicochemical; conditions: water
[6] = Multiple p.o. dosing plasma concentration-time profile and simulation; format: in vivo, mice; conditions: 68 mg/kg three times a day for 3 days
[7] = test system: P. falciparum (FCR-3 strain); parameters: method as in PMID 21501696; conditions: P. falciparum FCR-3 strain in vitro, cited from earlier work
[8] = test system: P. berghei; parameters: method as in PMID 11428929; conditions: 4-day suppressive test, cited from earlier work
[9] = test system: rodent malaria parasites; parameters: method as in PMID 21501696; conditions: 68 mg/kg three times a day for 3 days, cited from earlier work
[10] = cited from earlier work
[11] = i.v. 5, 10 and 25 mg/kg, range over doses
[12] = male, ICR, mouse, plasma, po, p.o. 30 mg/kg
[13] = male, ICR, mouse, plasma, po, p.o. 50 mg/kg
[14] = male, ICR, mouse, plasma, po, p.o. 68 mg/kg
[15] = male, ICR, mouse, plasma, po, p.o. 100 mg/kg
[16] = male, ICR, mouse, plasma, po, p.o. 210 mg/kg
[17] = ICR, mouse, plasma, po, 68 mg/kg, normal-fed mice
[18] = fit of single p.o. dose, two-compartment model with first-order absorption

Compound: OCCCCCCC1COOC2(CCCCCCCCCCC2)OOC1 [N-251, 6-(1,2,6,7-tetraoxaspiro [7.11]nonadec-4-yl)hexan-1-ol]
- MRTiv ([1]; i.v. 5 mg/kg): 1.12 h
- Vd1 ([1]; i.v. 5 mg/kg): 3.23 L/kg
- Vd2 ([1]; i.v. 5 mg/kg): 1.62 L/kg
- A (hybrid parameter) ([1]; i.v. 5 mg/kg): 1453.6 ± 465.9 ng/mL
- B (hybrid parameter) ([1]; i.v. 5 mg/kg): 92.5 ± 182.0 ng/mL
- a (hybrid parameter) ([1]; i.v. 5 mg/kg): 1.62 ± 0.70 h⁻¹
- b (hybrid parameter) ([1]; i.v. 5 mg/kg): 0.35 ± 0.37 h⁻¹
- MRTiv ([1]; i.v. 10 mg/kg): 0.96 h
- Vd1 ([1]; i.v. 10 mg/kg): 1.58 L/kg
- Vd2 ([1]; i.v. 10 mg/kg): 2.35 L/kg
- A (hybrid parameter) ([1]; i.v. 10 mg/kg): 5922.7 ± 1731.5 ng/mL
- B (hybrid parameter) ([1]; i.v. 10 mg/kg): 410.0 ± 253.8 ng/mL
- a (hybrid parameter) ([1]; i.v. 10 mg/kg): 3.84 ± 1.23 h⁻¹
- b (hybrid parameter) ([1]; i.v. 10 mg/kg): 0.46 ± 0.15 h⁻¹
- MRTiv ([1]; i.v. 25 mg/kg): 0.86 h
- Vd1 ([1]; i.v. 25 mg/kg): 1.36 L/kg
- Vd2 ([1]; i.v. 25 mg/kg): 1.52 L/kg
- A (hybrid parameter) ([1]; i.v. 25 mg/kg): 17,738.1 ± 1700.0 ng/mL
- B (hybrid parameter) ([1]; i.v. 25 mg/kg): 690.4 ± 341.6 ng/mL
- a (hybrid parameter) ([1]; i.v. 25 mg/kg): 3.12 ± 0.55 h⁻¹
- b (hybrid parameter) ([1]; i.v. 25 mg/kg): 0.39 ± 0.10 h⁻¹
- T1/2α [1, 11]: 0.18 to 0.429 h
- distribution volume [1, 11]: 2.88 to 4.85 L/kg
- half-life ([1]; other: i.v. and p.o. administration, i.v. and p.o. administration, read-out: half-life): < 2 h
- AUC ([1]; iv, i.v. 5 mg/kg): 1160 ng·h/mL
- k el ([1]; iv, i.v. 5 mg/kg): 0.000369 s⁻¹
- clearance ([1]; iv, i.v. 5 mg/kg): 71.7 mL/min/kg
- Vd ([1]; iv, i.v. 5 mg/kg): 4.85 L/kg
- AUC ([1]; iv, i.v. 10 mg/kg): 2430 ng·h/mL
- k el ([1]; iv, i.v. 10 mg/kg): 0.000722 s⁻¹
- clearance ([1]; iv, i.v. 10 mg/kg): 68.5 mL/min/kg
- Vd ([1]; iv, i.v. 10 mg/kg): 3.93 L/kg
- AUC ([1]; iv, i.v. 25 mg/kg): 7460 ng·h/mL
- k el ([1]; iv, i.v. 25 mg/kg): 0.000686 s⁻¹
- clearance ([1]; iv, i.v. 25 mg/kg): 55.8 mL/min/kg
- Vd ([1]; iv, i.v. 25 mg/kg): 2.88 L/kg
- half-life ([1]; iv, i.v. 5, 10 and 25 mg/kg, range over doses, read-out: T1/2β): 1.5 to 1.99 h
- Tmax ([2]; ICR, mouse, plasma, po, every group of dose (30-210 mg/kg)): 2 h
- bioavailability ([2]; ICR, mouse, plasma, po, p.o. administration, over doses 30-210 mg/kg, read-out: bioavailability (F)): ~23%
- Cmax [2, 12]: 634 ± 129 ng/mL
- Tmax [2, 12]: 2 h
- AUC [2, 12]: 1570 ng·h/mL
- Cmax [2, 13]: 1360 ± 799 ng/mL
- Tmax [2, 13]: 2 h
- AUC [2, 13]: 2570 ng·h/mL
- Cmax [2, 14]: 1680 ± 811 ng/mL
- Tmax [2, 14]: 2 h
- AUC [2, 14]: 3770 ng·h/mL
- Cmax [2, 15]: 2460 ± 802 ng/mL
- Tmax [2, 15]: 2 h
- AUC [2, 15]: 5890 ng·h/mL
- Cmax [2, 16]: 4890 ± 1190 ng/mL
- Tmax [2, 16]: 2 h
- AUC [2, 16]: 15200 ng·h/mL
- MRTpo ([2]; p.o. 30 mg/kg): 2.45 h
- F ([2]; p.o. 30 mg/kg, vs AUC of 10 mg/kg i.v.): 0.2156
- MRTpo ([2]; p.o. 50 mg/kg): 2.49 h
- F ([2]; p.o. 50 mg/kg, vs AUC of 10 mg/kg i.v.): 0.2110
- MRTpo ([2]; p.o. 68 mg/kg): 2.46 h
- F ([2]; p.o. 68 mg/kg, vs AUC of 10 mg/kg i.v.): 0.2277
- MRTpo ([2]; p.o. 100 mg/kg): 2.46 h
- F ([2]; p.o. 100 mg/kg, vs AUC of 10 mg/kg i.v.): 0.2419
- MRTpo ([2]; p.o. 210 mg/kg): 2.74 h
- F ([2]; p.o. 210 mg/kg, vs AUC of 10 mg/kg i.v.): 0.2982
- F ([2]; p.o. between 30 and 100 mg/kg): approximately 0.22
- AUC ([3]; ICR, mouse, plasma, po, 68 mg/kg, P. berghei-infected (0.61%) fasted mice): 3270 ng·h/mL
- Cmax ([3]; ICR, mouse, plasma, po, 68 mg/kg, P. berghei-infected (0.61%) fasted mice, read-out: Cmax): 1770 ± 1650 ng/mL
- Cmax ([3]; ICR, mouse, plasma, po, 68 mg/kg, normal-fasted mice (control), read-out: Cmax): 1680 ng/mL
- AUC [3, 17]: 2280 ng·h/mL
- Tmax [3, 17]: 1.5 h
- Cmax ([3]; ICR, mouse, plasma, po, 68 mg/kg, normal-fed mice, read-out: Cmax): 953 ng/mL
- AUC in fed mice relative to fasted mice [3]: about 60%
- Cmax in fed mice relative to normal-fasted mice [3]: 57%
- F ([3]; P. berghei-infected (0.61%) fasted mice): 0.1978
- MRTpo ([3]; normal-fed mice): 3.01 h
- F ([3]; normal-fed mice): 0.1379
- Cmax ([3]; normal-fed mice, 68 mg/kg): 950 ng/mL and 952.50 ± 332.49 ng/mL
- minimal plasma concentration (Cmin) ([4]; 68 mg/kg p.o. every 8 h for 2 days, normal-fed mice, except 8 h after the first administration): greater than 10 ng/mL
- accumulation on multiple oral dosing ([4]; 68 mg/kg p.o. three times per day for 2 days, normal-fed mice): did not accumulate; also recorded: does not accumulate
- X (hybrid parameter used for simulation) [4, 18]: 8422 ng/mL/kg
- Z (hybrid parameter used for simulation) [4, 18]: 5.29 ng/mL/kg
- ka (absorption rate constant) [4, 18]: 0.845 h⁻¹
- lag time [4, 18]: 0.330
- α (hybrid parameter used for simulation) [4, 18]: 1.09 ng/h/mL/kg
- β (hybrid parameter used for simulation) [4, 18]: 1.06 h⁻¹
- solubility [5]: 0.007 mg/mL (≈ 0.0188 mM)
- plasma concentration maintained for 72 h [6]: more than 10 ng/mL
- EC50 ([7]; equivalent of 8.6 ng/mL, read-out: EC50): 23 nM
- EC50 [7]: 8.6 ng/mL
- ED50 ([8]; i.v.): 22 mg/kg
- ED50 ([8]; p.o.): 15 mg/kg
- period without parasites after the last administration ([9]; infected mice): 2 months
- time after treatment at which parasites were not observed in the bloodstream ([9]; infected mice): 36 h
- time after which malaria parasites decreased ([9]; infected mice): 16 h
- cure of infected mice [9]: completely cured without recrudescence
- solubility in Cremophor EL ([10]; Cremophor EL): 65 mg/mL (≈ 174 mM)
- solubility in olive oil ([10]; olive oil): 92 mg/mL (≈ 247 mM)
